Assay results from patent publication US6451837B1, “Neuroprotective effects of mitogen-activated protein kinase (MAPK) cascade inhibitors” (priority 1999, dated 2002).

How the values were obtained:
Type in all cases: cell-based, Wistar rat
[1] = test system: cultured hippocampal tissue explants; experiment: Cell death induced by transfer to fresh culture medium in cultured hippocampal slices, propidium iodide fluorescence
Procedure: (§1) Seven day old Wistar rat pups were anaesthetized with fluothane, decapitated and transverse hippocampal slices (400 microns) were cultured for 12 days on 6-well tissue culture plates containing 1 ml of culture medium. The medium composition was 50% minimal essential medium (MEM), 25% horse serum, 25% Earl's balanced salt solution with D-glucose and HEPES, penicillin G and streptomycin sulfate, 5000 units/ml and 5 μg/ml respectively and the pH, 7.15. Slices were cultured at 36.5° C., 100% humidity, 95% air and 5% CO2 atmosphere, and were fed twice weekly by 50% medium exchange. All drugs were dissolved in water or dimethylsulfoxide (DMSO, final concentration was 0.1%) to make stock solutions. Controls for DMSO effects were performed where appropriate. To apply a drug, the stock solution was dissolved in 1 ml of fresh culture medium to make a desired concentration. Then, hippocampal slices were transferred for a specified time interval to the fresh medium containing the drug. To terminate the drug action, slices were again transferred to a fresh medium containing 2 mg/ml propidium iodide (PI). The medium temperature was kept at 36° C. during the transfers. Since the change of medium induced nerve cell death, control experiments were performed by transferring hippocampal slices an equal number of times into the fresh medium with the intervals between transfers equal to the time interval that slices were exposed to the drug. In a separate series of experiments the medium replacement was performed twice with a 30 minute interval in order to induce cell death. Cell death was measured as the PI fluorescence intensity by using MRC-600 Laser Scanning Confocal Imaging System. PI was added to the medium 30 minutes prior to taking control images (immediately before the drug treatment). […] Each experiment was performed at least in triplicate, on 5-6 slices each time and data expressed as an average of all experiments. Cell death index was derived from PI fluorescence intensity normalized to the intensity values obtained after the 48 hour exposure of slices to an ambient temperature of 4° C. […]

[2] = test system: cultured hippocampal tissue explants; experiment: NMDA-induced cell death in cultured hippocampal slices, propidium iodide fluorescence; conditions: for number of dead cells lower than in explants treated with NMDA alone: staurosporine 0.2 μM; for neuroprotection to nerve cells, as described in Example 1: PD098059 about 30-90 μM, apigenin about 25-100 μM; for reduction of NMDA toxicity: treated 2 hours prior to NMDA 50 μM, PD098059 30-90 μM, wortmannin 1-5 μM, FIG. 2-4
[3] = test system: cultured hippocampal tissue explants; experiment: Cell death induced by amyloid β-protein fragment 25-35 in cultured hippocampal slices; conditions: 30-90 μM for 2 hours prior to the addition of toxic peptides
Procedure: as §1, with “To terminate the drug action, slices were again transferred to a fresh medium containing 2 mg/ml propidium iodide (PI). The medium temperature was kept at 36° C. during the transfers. Since the change of medium induced nerve cell death, control experiments were performed by transferring hippocampal slices an equal number of times into the fresh medium with the intervals between transfers equal to the time interval that slices were exposed to the drug. In a separate series of experiments the medium replacement was performed twice with a 30 minute interval in order to induce cell death.” left out, “System.” for “System. PI was added to the medium 30 minutes prior to taking control images (immediately before the drug treatment).”

[4] = 24 hours after NMDA exposure, FIG. 5

NC(CCCP(=O)(O)O)C(=O)O (stereo not shown) [AP5]
block of the increase in cell death caused by transfers to fresh medium ([1]; AP5 20 μM, CA1-CA4 and dentate gyrus): not blocked

CN[C@H](CC(=O)O)C(=O)O [NMDA, N-methyl-D-aspartate]
cells killed, relative to 4° C. exposure taken as 100% of cells ([2]; 50 μM NMDA, 30 minutes exposure): approximately 30%
cell death in the dentate gyrus ([2]; NMDA 2.5-500 μM): did not induce concentration-dependent increase in cell death
cell death in the CA1-CA4 region of the hippocampus ([2]; NMDA 2.5-500 μM for 30 minutes): marked cell death

COc1cccc(-c2cc(=O)c3ccccc3o2)c1N [PD098059, 2-(2′-amino-3′methoxyphenyl)-oxanaphthalen-4-one]
cell death induced by toxic amyloid peptides [3]: prevented cell death
number of dead cells lower than in explants treated with staurosporine [2, 4]: 33%
number of dead cells lower than in explants treated with NMDA alone [2, 4]: 95%
neuroprotection to nerve cells, as described in Example 1 [2]: effective in providing neuroprotection
reduction of NMDA-induced cell death ([2]; applied immediately after NMDA): effective in reducing NMDA-induced cell death
reduction of NMDA toxicity [2]: significantly reduced NMDA toxicity
cell death after exposure to fresh medium at 24 hours ([1]; 24 hours, PD098059 30-90 μM for 2 hours prior, wortmannin 1 μM, FIG. 6): significantly reduced cell death
cell death after exposure to fresh medium at 72 hours ([1]; 72 hours, PD098059 30-90 μM for 2 hours prior, wortmannin 1 μM, FIG. 6): significantly reduced cell death

O=c1cc(-c2ccc(O)cc2)oc2cc(O)cc(O)c12 [apigenin]
neuroprotection to nerve cells, as described in Example 1 [2]: effective in providing neuroprotection

N[C@H](CCCP(=O)(O)O)C(=O)O [d-APV]
block of NMDA-induced cell death ([2]; slices exposed to NMDA for 30 minutes): could be blocked

CN[C@@H]1C[C@H]2O[C@@](C)([C@@H]1OC)n1c3ccccc3c3c4c(c5c6ccccc6n2c5c31)C(=O)NC4 [staurosporine]
number of dead cells lower than in explants treated with NMDA alone [2, 4]: 45%
reduction of NMDA toxicity [2]: somewhat effective
